| melting point [°C] | Compound |
| --- | --- |
| 146 to 147 | O=C1c2ccccc2C(=O)N1CSc1nnnn1-c1ccccc1 |
| 138 to 140 | CC(C)(C)OC(=O)N1CCc2c(n(CCOc3ccccc3)c3c(Cl)c(Cl)ccc23)CC1 |
| 223 to 225 | CON(C)C(=O)c1cc(S(N)(=O)=O)sc1Cl |
| 196 to 200 | N=C(N)Nc1nc(CSCCNc2[nH]ccc2[N+](=O)[O-])cs1 |
| 239 to 241 | O=C(Nc1ccc2c(c1)C(=O)NC2=O)C(=O)N1CCC(Cc2ccccc2)CC1 |
| 91 to 92.5 | C#CCn1cncc1CO |
| 260 to 261 | COc1ccc2nc3cc(OC)c(=O)c(Br)c-3sc2c1 |
| 90 | O=C1C=NC(c2ccccc2)O1 (stereo not drawn) |
| 157 to 160 | COc1cccc(-c2nc(Nc3ccc(Cl)cc3)c3ccccc3n2)n1 |
| 112 to 114 | CCCOc1ccc(Br)c2c(=O)c3ccccc3sc12 |
| 191 to 192 | CC1=C(CC(=O)O)CN(C)N1 |
| 106 to 107 | CCOC(=O)C=C(C)C=CC=C(C)C=Cc1c(C)cc(OC)c(C)c1Cl |
| 140 to 142 | O=C(C1CCCCC1)N(CCN1CCN(CC(O)c2ccccc2)CC1)c1ccccn1 (stereo not drawn) |
| 76.2 to 77.8 | CCOC(=O)N1CCN(CCNc2ncnc3c2sc2nc(N4CCCC4)c4c(c23)CC(C)(C)CC4)CC1 |
| 74 to 76 | CCOC(=O)C1CCN(CC2(C)Cc3c(C)c(N)c(C)c(C)c3O2)CC1 (stereo not drawn) |
| 90 to 91 | CC(C)c1cccc(Cl)c1Oc1nnc(Cl)cc1Cl |
| 133 to 136 | CCCCCCCCCCCCOC(=O)NS(=O)(=O)Nc1c(OC)cc(OC)cc1OC |
| 118 | CNC(=O)[C@@H]1CCN1S(=O)(=O)c1ccc(Cl)c(COc2cccc3c(-n4ccnc4)cc(C)nc23)c1Cl |
| 202 to 204 | COc1ccccc1NC(=O)N1CCc2cc(S(=O)(=O)N3CC(c4ccccc4)NC3=O)ccc21 (stereo not drawn) |
| 259 to 260 | CCC(CC)c1ccc(Cl)c2nc3n(c12)CCCCN3c1cc(C)cc2c1ncn2C |
| 66 to 67 | CCCCCCCCCCCOc1ccc(O)cc1C=O |
| 125 to 130 | N=C(NN=Cc1ccc(OC(F)C(F)(F)F)cc1)NN=Cc1ccc(OC(F)C(F)(F)F)cc1 (stereo not drawn) |
| 248 to 249 | COC(=O)[C@H](CC(=O)O)NC(=O)c1cccc(NC(=O)c2ccc(C(=N)N)cc2)c1 |
| 86 to 88 | COc1ccc(Cl)c(C)c1C=O |

| melting point [°C] | Compound |
| --- | --- |
| 198 to 200 | CCCCn1c(=O)c2c(NC)n[nH]c2n(CCNCc2ccccc2)c1=O |
| 247 | NCCCC(=O)NCCS(=O)(=O)O |
| 231 | CC1(C)CCC(C)(C)c2cc(-c3cc(-c4ccc(C(N)=O)cc4-c4ccc(O)cc4)ccc3-c3ccccc3)ccc21 |
| 226 to 227 | COc1ccc2[nH]c(-c3cc4cccnc4n3S(=O)(=O)c3ccc(C)cc3)cc2c1 |
| 159 to 163 | CC(=O)c1cccc(-c2cncc(OC3SCC(O)C(O)C3O)c2)c1 (stereo not drawn) |
| 190 to 192 | COC(=O)C1=C(C)NC(C)=C(C(=O)OCCC#N)C1c1cccc2c(=O)c(C)c(-c3ccccc3)oc12 (stereo not drawn) |
| 240 to 242 | CC(C)(CO)c1ccc(C(=O)Nc2cn3cc(Cl)ccc3n2)cc1 |
| 90 to 93 | CCOc1cc2cc(COC(C)=O)c(COC(C)=O)c(-c3ccnc(-n4ccc5ccccc5c4=O)c3)c2cc1OCC |
| 160 to 161 | COCn1nc(N2C(=O)c3ccccc3C2=O)c2cc(S(=O)(=O)C(C)C)cc(OCCc3ccccn3)c21 |
| 126 to 128 | Clc1ccc(/C=C/C2=CCN(Cc3ccccc3)CC2)cn1 |
| 128 to 145 | CCN(CC)CCc1cccc(Nc2ncc3c(n2)N(c2cccc(C#N)c2)C(=O)N(c2ccc(OC)cc2)C3C)c1 (stereo not drawn) |
| 179 to 181 | CSc1cc(-c2nc3ccccc3[nH]2)no1 |
| 51 to 54 | N#Cc1ccc(OCCCCCI)cc1 |
| 169 to 170 | NC(=O)c1cc(OCCNCC(O)c2ccccn2)ccc1O (stereo not drawn) |
| 124 to 126 | CCCCNC(=O)Oc1ccc2oc3ccccc3c2c1 |
| 167 to 170 | CN1C(C(=O)Nc2cccccc2=O)=C(OC(=O)C=Cc2ccccc2)c2sccc2S1(=O)=O |
| 92 to 95 | NC(=O)CCC(N)CO (stereo not drawn) |
| 193 | Cc1cc(-n2ccnc2)c2cccc(OCc3c(Cl)ccc(S(=O)(=O)N4CCCC4)c3Cl)c2n1 |
| 94 to 96 | CCOC(=O)NC(=NCCN(Cc1ccc(Cl)cc1)c1ccccn1)NCCCc1c[nH]cn1 |
| 151 to 154 | CCCCNC(=O)NS(=O)(=O)c1c(SC)cccc1SC |
| 111 to 113 | COC(=O)CCC(=O)SCC(=O)NC(C)=O |
| 73 | CC(C)Cc1ccc([N+](=O)[O-])cc1C#N |
| 95 to 99 | CC(=O)Nc1ccc(OC(=O)C(CSSCC(NC(C)=O)C(=O)O)NC(C)=O)cc1 (stereo not drawn) |
| 99 to 102 | CCOC(=O)CC(=O)Nc1c(F)cccc1[N+](=O)[O-] |

| melting point [°C] | Compound |
| --- | --- |
| 171 to 173 | O=Cc1ccc2c(c1)Cc1cccnc1O2 |
| 123 to 124 | O=C(CCCc1cccs1)NC(Cc1ccc(C(F)(F)F)cc1)C(=O)c1ccc(F)cc1 (stereo not drawn) |
| 236 to 237 | Cc1ccc(-c2ccc3c(c2)C=C(C(=O)O)CO3)cc1 |
| 166 to 167 | Cc1nc(N2CCN(Cc3ccc(OC(F)F)cc3)C2=O)sc1C(=O)NCc1cccnc1 |
| 251 | CCn1c(C)nc2cc(C(N)=O)ccc21 |
| 141 to 143 | CCCCNC(=O)NCC1CCN(c2ncnc3cc(OC)c(OC)cc23)CC1 |
| 258 to 259 | Cn1nc2c(-c3ccc(Cl)cc3Cl)cccc2c1C=CC#N |
| 159 to 162 | COc1ccc(N2C(=O)[C@@H](NC(=O)Cc3ccccc3)[C@H]2C=CC(=O)[C@@H]2CCCO2)cc1 |
| 172 to 173 | CCCn1c(=O)c2c(nc(/C=C/c3ccc(OCOC)c(OCOC)c3)n2C)n(CCC)c1=O |
| 144 to 146 | CC(C)(C)OC(=O)N[C@@]1(C(=O)OC(C)(C)C)CC(=O)[C@H]2[C@H](C(=O)OC(C)(C)C)[C@H]21 |
| 126 to 127 | CCN1CCCNC1=C[N+](=O)[O-] |
| 57 to 58 | Nc1cc(Cl)c(Cl)cc1-n1cccc1 |
| 104 | OC(CN1CCC(C(O)c2ccccc2)CC1)c1ccccc1 (stereo not drawn) |
| 165 to 168 | Cc1cc(O)nc(SCC(CS(=O)(=O)c2ccc(-c3ccc(Cl)cc3)cc2)C(=O)O)n1 (stereo not drawn) |
| 150 to 155 | COc1ccc(-c2ncccc2O)cc1OC |
| 131 | CC(C)(O)C(=O)c1ccc(F)cc1 |
| 67 to 70 | COc1ccccc1NC(=O)c1ccc(COC2CCCCO2)cc1 (stereo not drawn) |
| 138 to 139 | COC(=O)c1ccc(-c2nc(-c3ccc(OC(F)(F)F)cc3)cs2)cc1 |
| 51.4 to 52.8 | CN(C#N)C(=O)CCCC(=O)N(C)C#N |
| 65 to 66 | C=CCc1oc2c(OC)cccc2c1CC(=O)OC |
| 264 to 265 | Cc1nc2c(-c3ccc(N4CCN(C)CC4)cc3)cnn2c(N)c1-c1ccc(F)c(Cl)c1 |
| 172 to 174 | NCCCCCCCCCCCCCCCCCCCC(=O)O |

| Compound | melting point [°C] |
| --- | --- |
| COc1ccc(C2(CCO)CCN(C(=O)c3cc(OC)c(OC)c(OC)c3)C2)cc1OC (stereo not drawn) | 60 to 62 |
| CC(=O)N1CC(CCN2CC=C(c3ccc(Cl)cc3)CC2)c2ccccc21 (stereo not drawn) | 116 to 118 |
| C[C@@H]1N(c2ccc(C#N)c(Cl)c2)C(=O)C[C@]1(C)O | 93 to 99 |

Source: a melting point compilation (Tetko et al.; mined from patent text by program, amines drawn as free bases though some values may be those of a salt)
